From publication PMC8835363, “Arachidin-1, a Prenylated Stilbenoid from Peanut, Induces Apoptosis in Triple-Negative Breast Cancer Cells” (International Journal of Molecular Sciences, 2022)

Legend:
MCF-10A cells [1] = assay: RealTime-Glo MT cell viability (cytotoxicity) assay; type: cell-based, human; details: 1 µM, 24, 48, 72 h
Method: (§1) The cytotoxicity of RES, A-1, and A-3 was measured using the RealTime-Glo^TM MT Cell Viability Assay (Promega, Madison, WI, USA). The cells (10,000 cells/well) were seeded into 96-well plates. After 24 h, they were treated with various 10-fold dilutions of RES, A-1, and A-3 with concentrations ranging from 0.1 µM to 1000 µM. Cells with 0.1% DMSO (ATCC; Manassas, VA, USA) were included as a control. Luminescence was measured every 12 h for 72 total hours in a Cytation^TM 5 (BioTek, Winooski, VT, USA) plate reader. All experiments were performed in triplicates.

MDA-MB-231 cells [2] = assay: as above; type: cell-based, human; details: for IC50: Homo sapiens
Method: as §1, with “After 24 h, they were treated with various 10-fold dilutions of RES, A-1, and A-3 with concentrations ranging from 0.1 µM to 1000 µM.” left out

MDA-MB-436 cells [3] = assay: as above; type: cell-based, human; details: for IC50: Homo sapiens
Method: as §1, with “After 24 h, they were treated with various 10-fold dilutions of RES, A-1, and A-3 with concentrations ranging from 0.1 µM to 1000 µM.” left out

[4] = tested on: UDP-glucuronosyltransferases; details: in vitro metabolism; cited from earlier work
MDA-MB-231 cells [5] = assay: Annexin V-FITC/PI apoptosis assay (flow cytometry); type: cell-based, human; details: mean ± SD
Method: (§2) Cells (10^6 cells/well) were seeded onto 6-well plates. After 24 h, the cells were incubated with A-1 (0.1 and 1 µM) for 24, 48, and 72 h. The control groups were incubated with 0.01% DMSO (ATCC; Manassas, VA, USA) for every hour. Then, cells were collected and washed twice with cold 1X PBS and stained with both annexin V-FITC and PI for 5 min at room temperature. The cells were analyzed by flow cytometry using BD FACS Aria (BD Biosciences, Franklin Lakes, NJ, USA). The positive controls (annexin negative/PI negative; annexin negative/PI positive; and annexin positive/PI negative) were used to set up compensation and set quadrants. The early apoptotic cells were measured in the quadrant of annexin V positive/PI negative and late apoptotic/necrotic cells were measured in the quadrant of annexin positive/PI positive. Data were analyzed with FlowJo™ v10.8 Software (BD Life Sciences; Ashland, OR, USA). All experiments were performed in triplicates.

MDA-MB-436 cells [6] = assay: Annexin V-FITC/PI apoptosis assay (flow cytometry); type: cell-based, human; details: mean ± SD
Method: as §2

[7] = tested on: human leukemia HL-60 cell line; parameters: method as in PMID 21067217; details: 72 h treatment; cited from earlier work
MCF-10A cells [8] = assay: Cell cycle analysis with PI (flow cytometry); type: cell-based, human; details: 0.1 and 1 µM, 24, 48, 72 h
Method: (§3) Cells were seeded onto 6-well plates and treated with A-1 (0.1 µM and 1 µM) for 24, 48, and 72 h. Cells incubated with 0.01% DMSO (ATCC; Manassas, VA, USA) were used as a control. Then, MDA-MB-231 and MCF-10A cells were collected by trypsinization; MDA-MB-436 cells were collected by scraping. Treated cells were fixed with ice-cold 70% ethanol while vortexing and incubated for 1 h in 4 °C. Then, cells were washed with cold 1X DPBS, treated with 1 mg/mL of ribonuclease A, and incubated for 30 min at 37 °C. The cells were then stained with 10 µg/mL of propidium iodide (PI), incubated for 30 min at 37 °C, and analyzed by flow cytometry using BD FACS Aria Sorter (BD Biosciences, Franklin Lakes, NJ, USA). Data were analyzed with Modfit LT 5.0 software (Verity Software House; Topsham, ME, USA). All experiments were performed in triplicates.

MDA-MB-231 cells [9] = assay: Cell cycle analysis with PI (flow cytometry); type: cell-based, human
Method: as §3

MDA-MB-436 cells [10] = assay: Cell cycle analysis with PI (flow cytometry); type: cell-based, human
Method: as §3

## CC(C)/C=C/c1c(O)cc(/C=C/c2ccc(O)c(O)c2)cc1O [A-1, arachidin-1]
MCF-10A cells [1]
  cytotoxicity in non-cancerous epithelial cells: did not show any statistically significant cytotoxicity
MDA-MB-231 cells [2]; MDA-MB-231, 24 h, MDA-MB-231, 24 h, in Figure 2 panels
  IC50: 1840 nM
MDA-MB-231 cells [2]; MDA-MB-231, 24 h, MDA-MB-231, 24 h of treatment
  IC50: 2680 nM
MDA-MB-231 cells [2]; MDA-MB-231, 48 h, MDA-MB-231, 48 h, in Figure 2 panels
  IC50: 1420 nM
MDA-MB-231 cells [2]; MDA-MB-231, 48 h, MDA-MB-231, 48 h of treatment
  IC50: 7820 nM
MDA-MB-231 cells [2]; MDA-MB-231, 72 h, MDA-MB-231, 72 h, in Figure 2 panels
  IC50: 2510 nM
MDA-MB-231 cells [2]; MDA-MB-231, 72 h, MDA-MB-231, 72 h of treatment
  IC50: 2510 nM
MDA-MB-231 cells [2]; MDA-MB-231, MDA-MB-231, all treatment time points
  IC50: ~2000 nM
MDA-MB-231 cells [2]; MDA-MB-231, 1 µM, 24, 48, 72 h
  antiproliferative effect (cell viability vs control): cell proliferation reductions
MDA-MB-231 cells [2]; MDA-MB-231, 0.01-10 µM, 72 h
  growth inhibition at low concentrations: higher inhibitory growth effects at lower micromolar concentrations when compared to RES
MDA-MB-231 cells [2]; MDA-MB-231, 24 h
  fold lower IC50 of A-1 than RES: six-fold
MDA-MB-436 cells [3]; MDA-MB-436, 24 h, MDA-MB-436, 24 h
  IC50: 12000 nM
MDA-MB-436 cells [3]; MDA-MB-436, 24 h, MDA-MB-436, 24 h, in Figure 2 panels
  IC50: 1620 nM
MDA-MB-436 cells [3]; MDA-MB-436, 48 h, MDA-MB-436, 48 h
  IC50: 6200 nM
MDA-MB-436 cells [3]; MDA-MB-436, 48 h, MDA-MB-436, 48 h, in Figure 2 panels
  IC50: 2740 nM
MDA-MB-436 cells [3]; MDA-MB-436, 72 h, MDA-MB-436, 72 h
  IC50: 2090 nM
MDA-MB-436 cells [3]; MDA-MB-436, 72 h, MDA-MB-436, 72 h, in Figure 2 panels
  IC50: 2090 nM
MDA-MB-436 cells [3]; MDA-MB-436, MDA-MB-436, all treatment time points
  IC50: ~2000 nM
MDA-MB-436 cells [3]; MDA-MB-436, 1 µM, 24, 48, 72 h
  antiproliferative effect (cell viability vs control): cell proliferation reductions
MDA-MB-436 cells [3]; MDA-MB-436, 0.01-10 µM, 72 h
  growth inhibition at low concentrations: higher inhibitory growth effects at lower micromolar concentrations when compared to RES
MDA-MB-436 cells [3]; MDA-MB-436, 24 h
  fold lower IC50 of A-1 than A-3: nine-fold
  fold lower IC50 of A-1 than RES: eight-fold
[4]
  glucuronidated products compared to non-prenylated analogs piceatannol and RES: lower glucuronidated products
MDA-MB-231 cells [5]; 0.1 µM, 24 h
  percentage of cells in early apoptosis: 21.29 ± 1.94%
MDA-MB-231 cells [5]; 0.1 µM, 48 h
  percentage of cells in early apoptosis: 63.47 ± 0.90%
MDA-MB-231 cells [5]; 0.1 µM, 72 h
  percentage of cells in early apoptosis: 53.1 ± 2.50%
MDA-MB-231 cells [5]; 1 µM, 24 h
  percentage of cells in early apoptosis: 24.76 ± 1.65%
MDA-MB-231 cells [5]; 1 µM, 48 h
  percentage of cells in early apoptosis: 68.67 ± 0.76%
MDA-MB-231 cells [5]; 1 µM, 72 h
  percentage of cells in early apoptosis: 51.77 ± 2.37%
MDA-MB-436 cells [6]; 0.1 µM, 24 h
  percentage of early apoptotic cells: 35.76 ± 4.10%
MDA-MB-436 cells [6]; 0.1 µM, 48 h
  percentage of early apoptotic cells: 44.90 ± 0.89%
MDA-MB-436 cells [6]; 0.1 µM, 72 h
  percentage of early apoptotic cells: 45.73 ± 0.96%
MDA-MB-436 cells [6]; 1 µM, 24 h
  percentage of early apoptotic cells: 35.27 ± 3.78%
MDA-MB-436 cells [6]; 1 µM, 48 h
  percentage of early apoptotic cells: 46.11 ± 3.40%
MDA-MB-436 cells [6]; 1 µM, 72 h
  percentage of early apoptotic cells: 38.77 ± 2.59%
[7]
  IC50: 4.2 µM
MCF-10A cells [8]
  change in cell cycle phase distribution: no significant changes in the percentage of cells at different phases
MDA-MB-231 cells [9]; 0.1 µM, 72 h
  percentage of cells in G2-M phase: 27.73 ± 4.33%
MDA-MB-231 cells [9]; 1 µM, 24 h
  percentage of cells in G2-M phase: ~31.73 ± 4.00%
MDA-MB-231 cells [9]; 1 µM, 48 h
  percentage of cells in G2-M phase: ~25.13 ± 0.89%
MDA-MB-231 cells [9]; 1 µM, 72 h
  percentage of cells in G2-M phase: 31.28 ± 3.45%
MDA-MB-231 cells [9]; 0.1 and 1 µM
  cell cycle effect: cell arrest in the G2-M phase
MDA-MB-436 cells [10]; 0.1 µM, 48 h
  percentage of cells in G2-M phase: 25.82 ± 2.73%
MDA-MB-436 cells [10]; 0.1 µM, 72 h
  percentage of cells in G2-M phase: 38.89 ± 0.08%
MDA-MB-436 cells [10]; 1 µM, 24 h
  percentage of cells in G2-M phase: 23.97 ± 0.57%
MDA-MB-436 cells [10]; 1 µM, 48 h
  percentage of cells in G2-M phase: 31.07 ± 0.29%
MDA-MB-436 cells [10]; 1 µM, 72 h
  percentage of cells in G2-M phase: 36.88 ± 1.42%
MDA-MB-436 cells [10]; 0.1 and 1 µM
  cell cycle effect: increased the percentage of cells in the G2-M phase
